Assay results from patent US20070135499A1 (Aerie Pharmaceuticals, Inc., priority 2005, published 2007).

Key:
hGRK-2 = molecular target: T1, hGRK-2 (Homo sapiens, UniProt P25098); experiment: luciferase-based (Kinase-Glo) biochemical kinase inhibition assay, hGRK-2; conditions: luciferase assay, casein substrate, 10 μM ATP; read-out: GRK-2 inhibition, Ki class
T1 sequence (P25098 1-689): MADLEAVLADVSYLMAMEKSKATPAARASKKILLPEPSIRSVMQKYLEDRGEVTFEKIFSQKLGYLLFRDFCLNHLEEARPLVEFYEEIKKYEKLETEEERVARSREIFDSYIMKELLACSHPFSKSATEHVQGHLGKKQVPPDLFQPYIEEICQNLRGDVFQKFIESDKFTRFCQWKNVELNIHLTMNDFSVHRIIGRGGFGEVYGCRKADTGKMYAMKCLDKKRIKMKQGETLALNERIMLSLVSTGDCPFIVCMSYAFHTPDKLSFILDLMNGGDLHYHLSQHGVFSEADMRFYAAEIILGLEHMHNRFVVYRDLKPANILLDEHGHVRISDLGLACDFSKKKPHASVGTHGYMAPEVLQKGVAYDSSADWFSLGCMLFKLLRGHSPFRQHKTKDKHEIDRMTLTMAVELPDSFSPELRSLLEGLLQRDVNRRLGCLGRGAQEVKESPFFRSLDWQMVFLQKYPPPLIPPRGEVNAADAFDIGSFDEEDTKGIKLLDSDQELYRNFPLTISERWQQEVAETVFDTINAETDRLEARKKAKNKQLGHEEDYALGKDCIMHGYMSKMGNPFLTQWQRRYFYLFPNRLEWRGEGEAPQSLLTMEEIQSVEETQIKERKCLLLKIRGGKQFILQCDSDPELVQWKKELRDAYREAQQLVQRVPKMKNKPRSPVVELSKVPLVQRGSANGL
Method: (§1) The inhibition of G-protein-coupled receptor kinases including hGRK-2 was determined for the hydrazide compounds using a biochemical assay. The inhibition of GRK-3, GRK-5 and GRK-6 was also determined using the same assay for some of the hydrazide derivatives.
(§2) The protein kinase inhibition was determined using a biochemical assay utilizing the light emission of a luciferase reaction. The luciferase-based assay operates on the following reaction principles: [drawing 10]
(§3) An inhibitor of GRK-2 will increase in the amount of ATP in solution, as shown. Thus, an inhibitor of GRK-2 will drive the luciferase reaction to the right, resulting in more light emitted. The amount of light emitted is proportional to the inhibition resulting from the GRK-2 inhibitor. The luciferase-based assay was also used to test some of the hydrazides for the inhibition properties towards other kinases.
The test procedure was as follows:
• 50 mM HEPES, pH 7.5 • 10 mM MgCl2 • 100 μM activated sodium orthovanadate • 0.01% CHAPS • 0.1% BSA • 1 mM DTT (added fresh daily) 10× Assay Buffer Stock: • 500 mM HEPES, pH 7.5 • 100 mM MgCl2 • 1 mM activated sodium orthovanadate • 0.1% CHAPS • 1% BSA (leave out for 10× compound dilution buffer) Final Assay Conditions: • 50 μM test compound • 20 μM casein • 10 μM ATP • 50 nM hGRK2 • 4.5% DMSO • 90-120 minute incubation
Stopped by addition of 30 μl 3×-diluted Kinase-Glo reagent containing 0.01% trypan blue. Counted on FUSION plate reader.
Compound Dilution and Transfer
Prepare sufficient buffer containing 40% DMSO to add 20 μl/well to the number of plates being assayed. This buffer should not contain BSA because it will precipitate with addition of 40% DMSO. (EXAMPLE: To make 3000 ml compound dilution buffer: 1200 ml DMSO, 180 ml 10× compound dilution buffer, 1615 ml ultrapure water, 3 ml 1M DTT.).
Using Multidrop, add 20 μl of compound dilution buffer to all wells of the 384-well daughter plate (add 1 μl DMSO to control wells). This will result in a daughter plate which contains 21 μl of ˜500 μM test compound.
Using the PlateTrak, transfer 5 μl of the test compounds to a 384-well, non-binding, white microtiter plate.
Prepare sufficient volume of buffer (with BSA and 1 mM DTT) containing 125 nM GRK2 and 25 μM ATP. (Example: To 219 ml of buffer was added 550 μl 10 mM ATP and 350 μl 79 μM GRK2).
Using Multidrop, add 20 μl of GRK2/ATP mixture to all wells of the microtiter plate.
Prepare sufficient volume of buffer (with BSA and 1 mM DTT) containing 40 μM casein. (EXAMPLE: To 211 ml buffer add 8.8 ml 1 mM casein)
Using Multidrop, add 25 μl to columns 1 through 23 of the microtiter plate. Add 25 μl of complete buffer to column 24 (blanks).
Mix reaction gently by tapping (Multidrop addition of casein does a decent job of mixing), stack plates and incubate at room temperature for between 90 and 120 minutes. Assay progression can be tracked in a separate plate if desired. Target 20-30% ATP consumption. Try to avoid exceeding 40% consumption as kinetics might become non-linear due to substrate (ATP) depletion.
Addition of Kinase-Glo Reagents
The Kinase-Glo reagent can be diluted 3-fold with no loss of data quality in this assay. Additionally, since the library contains many colored compounds which will quench the light emitted from the well resulting in a false negative (kinase inhibitors result in less ATP consumption thus more light emitted), the entire reaction is subject to intentional quench to override this effect. This intentional quench is accomplished by the addition of 0.01% trypan blue to the Kinase-Glo reagents. (EXAMPLE: 100 ml 1× Kinase-Glo reagents (prepared according to product insert), 200 ml assay buffer, 7.5 ml 0.4% trypan blue.
Using Multidrop, add 30 μl to all wells of the assay plate.
Count on FUSION plate reader in luminescence mode.

GRK-3 = molecular target: T2, GRK-3 (Homo sapiens, UniProt P35626); experiment: luciferase-based biochemical kinase inhibition assay, GRK-3; conditions: same luciferase assay; read-out: GRK-3 inhibition, Ki class
T2 sequence (P35626 1-688): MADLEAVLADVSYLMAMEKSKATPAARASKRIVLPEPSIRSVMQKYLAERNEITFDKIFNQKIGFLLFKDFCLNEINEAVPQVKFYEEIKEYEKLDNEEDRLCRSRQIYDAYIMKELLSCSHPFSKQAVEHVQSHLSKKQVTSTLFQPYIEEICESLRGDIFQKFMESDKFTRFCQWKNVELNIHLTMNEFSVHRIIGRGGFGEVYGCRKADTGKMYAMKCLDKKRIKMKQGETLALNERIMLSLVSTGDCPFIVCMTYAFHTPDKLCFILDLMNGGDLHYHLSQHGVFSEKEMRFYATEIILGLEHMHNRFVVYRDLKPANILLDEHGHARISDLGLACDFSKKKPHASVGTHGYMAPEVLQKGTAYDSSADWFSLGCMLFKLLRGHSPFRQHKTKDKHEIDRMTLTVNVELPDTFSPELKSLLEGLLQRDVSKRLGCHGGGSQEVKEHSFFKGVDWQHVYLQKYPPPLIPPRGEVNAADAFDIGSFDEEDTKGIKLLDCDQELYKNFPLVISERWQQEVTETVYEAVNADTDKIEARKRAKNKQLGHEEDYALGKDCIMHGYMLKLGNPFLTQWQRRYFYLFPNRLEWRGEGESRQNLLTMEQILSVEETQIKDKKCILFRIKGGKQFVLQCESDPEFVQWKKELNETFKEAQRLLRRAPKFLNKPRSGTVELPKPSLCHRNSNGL
Method: as §1, §2, §3

GRK-5 = GRK-5 (Homo sapiens, UniProt P34947); experiment: luciferase-based biochemical kinase inhibition assay, GRK-5; conditions: same luciferase assay; read-out: GRK-5 inhibition, Ki class
Method: The inhibition of G-protein-coupled receptor kinases including hGRK-2 was determined for the hydrazide compounds using a biochemical assay. […] The inhibition of GRK-3, GRK-5 and GRK-6 was also determined using the same assay for some of the hydrazide derivatives.
as §2, §3

GRK-5, sequence (P34947 whole entry, species assumed): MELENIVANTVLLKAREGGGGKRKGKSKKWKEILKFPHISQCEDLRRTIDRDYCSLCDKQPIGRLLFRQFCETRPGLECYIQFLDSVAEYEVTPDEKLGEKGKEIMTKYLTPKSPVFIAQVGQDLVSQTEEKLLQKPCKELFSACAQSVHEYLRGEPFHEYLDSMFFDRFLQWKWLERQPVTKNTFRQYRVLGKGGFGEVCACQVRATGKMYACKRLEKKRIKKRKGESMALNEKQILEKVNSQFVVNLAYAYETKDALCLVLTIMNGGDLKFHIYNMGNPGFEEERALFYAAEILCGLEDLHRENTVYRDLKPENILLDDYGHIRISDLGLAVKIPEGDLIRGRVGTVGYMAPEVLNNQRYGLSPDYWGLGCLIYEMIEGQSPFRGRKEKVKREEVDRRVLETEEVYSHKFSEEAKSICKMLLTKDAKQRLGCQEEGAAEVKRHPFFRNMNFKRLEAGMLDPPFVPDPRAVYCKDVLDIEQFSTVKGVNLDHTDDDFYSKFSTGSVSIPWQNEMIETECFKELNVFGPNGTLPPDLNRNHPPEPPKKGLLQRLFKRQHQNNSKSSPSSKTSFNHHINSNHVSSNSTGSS

Structure (SMILES) | Ki (hGRK-2) | Ki (GRK-3) | Ki (GRK-5)
O=C(CNc1cccc(C(=O)Nc2ccccc2)c1)N/N=C/c1c(Cl)cncc1Cl [Example 97, 3-{[1-(3,5-Dichloro-pyridin-4-yl)-meth-(E)-ylidene-hydrazinocarbonylmethyl]-amino}-N-phenyl-benzamide] | 100 to 1000 nM | 10 to 100 nM | 1000 to 10000 nM
NS(=O)(=O)c1cccc(NCC(=O)N/N=C/c2ccncc2)c1 [Example 63, 3-{[1-Pyridin-4-yl-meth-(E)-ylidene-hydrazinocarbonylmethyl]-amino}-benzenesulfonamide] | 100 to 1000 nM | 1000 to 10000 nM | > 10000 nM
O=C(CNc1cccc(F)c1)N/N=C/c1ccncc1 [Example 40, (3-Fluoro-phenylamino)-acetic acid [1-pyridin-4-yl-meth-(E)-ylidene]-hydrazide] | 100 to 1000 nM | 1000 to 10000 nM | > 10000 nM
O=C(CNc1cccc(F)c1)N/N=C/c1c(Cl)cncc1Cl [Example 4, (3-Fluoro-phenylamino)-acetic acid [1-(3,5-dichloro-pyridin-4-yl)-meth-(E)-ylidene]-hydrazide] | 100 to 1000 nM | 1000 to 10000 nM | 1000 to 10000 nM
CCOc1cccc(NCC(=O)N/N=C/c2c(Cl)cncc2Cl)c1 [Example 21, (3-Ethoxy-phenylamino)-acetic acid [1-(3,5-dichloro-pyridin-4-yl)-meth-(E)-ylidene]-hydrazide] | 100 to 1000 nM | > 10000 nM | > 10000 nM
CSc1cccc(NCC(=O)N/N=C/c2ccncc2)c1 [Example 48, (3-Methylsulfanyl-phenylamino)-acetic acid [1-pyridin-4-yl-meth-(E)-ylidene]-hydrazide] | 100 to 1000 nM | 100 to 1000 nM | > 10000 nM
C/C(=N\NC(=O)CNc1cccc(C(=O)Nc2ccccc2)c1)c1ccncc1 [Example 90, N-Phenyl-3-{[1-pyridin-4-yl-eth-(E)-ylidene-hydrazinocarbonylmethyl]-amino}-benzamide] | 100 to 1000 nM | 100 to 1000 nM | > 10000 nM
O=C(CNc1cccc(C(=O)Nc2ccccc2)c1)N/N=C/c1ccncc1 [Example 96, N-Phenyl-3-{[1-pyridin-4-yl-meth-(E)-ylidene-hydrazinocarbonylmethyl]-amino}-benzamide] | 100 to 1000 nM | 10 to 100 nM | –
CS(=O)(=O)Nc1cccc(NCC(=O)N/N=C/c2ccncc2)c1 [Example 64] | > 10000 nM | – | –
CS(=O)(=O)c1cccc(NCC(=O)N/N=C/c2ccncc2)c1 [Example 73, (3-Methanesulfonyl-phenylamino)-acetic acid [1-pyridin-4-yl-meth-(E)-ylidene]-hydrazide] | 1000 to 10000 nM | – | –
O=C(CNc1cccc(Br)c1)N/N=C/c1ccncc1 [Example 44, (3-Bromo-phenylamino)-acetic acid [1-pyridin-4-yl-meth-(E)-ylidene]-hydrazide] | 100 to 1000 nM | – | –
O=C(CNc1ccccc1Br)N/N=C/c1c(Cl)cncc1Cl [Example 29, (2-Bromo-phenylamino)-acetic acid [1-(3,5-dichloro-pyridin-4-yl)-meth-(E)-ylidene]-hydrazide] | > 10000 nM | – | –
O=C(CNc1ccc(C(F)(F)F)cc1)N/N=C/c1ccncc1 [Example 54, (4-Trifluoromethyl-phenylamino)-acetic acid [1-pyridin-4-yl-meth-(E)-ylidene]-hydrazide] | > 10000 nM | – | –
COc1cc(NCC(=O)N/N=C/c2ccncc2)cc(OC)c1 [Example 100, (3,5-Dimethoxy-phenylamino)-acetic acid [1-pyridin-4-yl-meth-(E)-ylidene]-hydrazide] | > 10000 nM | – | –
Cc1ccccc1NCC(=O)N/N=C/c1ccncc1 [Example 65, o-Tolylamino-acetic acid [1-pyridin-4-yl-meth-(E)-ylidene]-hydrazide] | > 10000 nM | – | –
NC(=O)c1ccc(NCC(=O)N/N=C/c2ccncc2)cc1 [Example 75, 4-{[1-Pyridin-4-yl-meth-(E)-ylidene-hydrazinocarbonylmethyl]-amino}-benzamide] | > 10000 nM | – | –
O=C(CNc1cccc(C(=O)Nc2cccnc2)c1)N/N=C/c1ccncc1 [Example 80, N-Pyridin-3-yl-3-{[1-pyridin-4-yl-meth-(E)-ylidene-hydrazinocarbonylmethyl]-amino}-benzamide] | 100 to 1000 nM | – | –
CC(C)Oc1cccc(NCC(=O)N/N=C/c2ccncc2)c1 [Example 58, (3-Isopropoxy-phenylamino)-acetic acid [1-pyridin-4-yl-meth-(E)-ylidene]-hydrazide] | 1000 to 10000 nM | – | –
CC(Nc1cccc(Oc2ccccc2)c1)C(=O)N/N=C/c1ccncc1 (centres unmarked) [Example 99, 2-(3-phenoxy-phenylamino)-propionic acid [1-pyridin-4-yl-meth-(E)-ylidene]-hydrazide] | > 10000 nM | – | –
COc1ccccc1NCC(=O)N/N=C/c1ccncc1 [Example 67, (2-Methoxy-phenylamino)-acetic acid [1-pyridin-4-yl-meth-(E)-ylidene]-hydrazide] | > 10000 nM | – | –
